Patent US8168665B2, “Substituted 2-phenyl-benzimidazoles and their use as pharmaceuticals” (Sanofi-Aventis, priority 2006, dated 2012)

Test system: eNOS promoter
Test: Activation of eNOS transcription (eNOS promoter-luciferase reporter, human endothelial cell line)
Format: cell-based
Details: human endothelial cell line stably transfected with eNOS promoter-luciferase construct, 18 h incubation, determined graphically; read-out: EC50 values of transcription induction ratios (TIR)
Experimental: A) Activation of eNOS Transcription
Activation of eNOS transcription was measured as described in detail by Li et al., “Activation of protein kinase C alpha and/or epsilon enhances transcription of the human endothelial nitric oxide synthase gene”, Mol. Pharmacol. 53 (1998) 630. Briefly, a 3.5 kB long fragment 5′ of the starting codon of the eNOS gene was cloned, sequenced and cloned in firefly luciferase expression plasmids to monitor activation of the eNOS promoter by reporter gene activity. A human endothelial cell line stable transfected and expressing this promoter-reporter construct was used for compound testing. Cells were incubated for 18 h with the compounds.
All compounds were dissolved in sterile dimethyl sulfoxide (DMSO). A final concentration of 0.5% DMSO in complete medium was allowed. Induction of reporter gene expression in these cells was measured using a standard luciferase assay system (Promega, Cat. No. E150) according to the manufacturer's instructions. Luciferase induction in cells incubated with compounds were compared to those incubated with solvent alone. The ratio of both activities (transcription induction ratio, TIR) was plotted as a function of compound concentration. Typically, TIR values started at low concentrations at a ratio of 1, indicating no compound effect, and extended up to a maximum TIR value TIR(max) which indicates the increase of the eNOS transcription. EC50 values of transcription induction ratios as a function of compound concentration were determined graphically.

Row | EC50 | SMILES
1 | < 500 nM | Cc1ccc(-c2nc3cc(/C(N)=N/O)ccc3[nH]2)cc1 [Example 4, N-Hydroxy-2-p-tolyl-1H-benzoimidazole-5-carboxamidine]
2 | < 500 nM | CC(C)OC(=O)O/N=C(\N)c1ccc2[nH]c(-c3ccc(F)cc3)nc2c1 [Example 7, 2-(4-Fluoro-phenyl)-N-isopropyloxycarbonyl-oxy-1H-benzoimidazole-5-carboxamidine]
3 | < 500 nM | CCOC(=O)O/N=C(\N)c1ccc2[nH]c(-c3ccc(F)cc3)nc2c1 [Example 5, 2-(4-Fluoro-phenyl)-N-ethoxycarbonyl-oxy-1H-benzoimidazole-5-carboxamidine]
4 | < 500 nM | COC(=O)O/N=C(\N)c1ccc2[nH]c(-c3ccc(F)cc3)nc2c1 [Example 6, 2-(4-Fluoro-phenyl)-N-methoxycarbonyl-oxy-1H-benzoimidazole-5-carboxamidine]
